Measured values reported in PMC10779311, “Antileishmanial Activity, Toxicity and Mechanism of Action of Complexes of Sodium Usnate with Lanthanide Ions: Eu(III), Sm(III), Gd(III), Nd(III), La(III) and Tb(III)” (International Journal of Molecular Sciences, 2023).
Values after ≈ are worked out from the molar mass of the structure shown.

Assays:
[1] = test system: L. (L.) amazonensis promastigote forms; assay: In vitro antileishmanial activity on promastigote forms (MTT); type: cell-based, Leishmania (Leishmania) amazonensis; settings: 72 h, MTT; read-out: L. amazonensis Promastigotes (Pro.) IC50
[2] = test system: L. (L.) amazonensis-infected macrophages; assay: NO production by infected cells (Griess reaction); type: cell-based, BALB/c mice; settings: 24 h after treatment, lowest concentration 6.25 µg·mL^−1
Experimental: Nitric oxide (NO) production by infected and treated peritoneal macrophages was estimated in the supernatants from the intracellular amastigotes assay by the Griess reaction. Aliquots of the supernatants ([…]) were incubated with Griess reagent (1:1) for 10 min at room temperature. Absorbance was read on a microplate reader (HumanReader HS, Wiesbaden, Germany) at 550 nm. Conversion of nitrite (NO^−2) to micromolar (µM) was performed by comparing the samples to a standard curve obtained with known concentrations (1–10 µM) of sodium nitrite diluted in RPMI 1640 medium (Sigma-Aldrich® São Paulo, Brazil). The average and standard error of the mean (SEM) were calculated from three replicates. The data were analyzed using ANOVA and subsequently subjected to the Bonferroni test.

[3] = test system: NIH/3T3 fibroblasts; assay: Cytotoxicity in mammalian cells (sulforhodamine B); type: cell-based; settings: 48 h, read-out: Fibroblasts NIH/3T3 (Fib.) IC50
Experimental: The cytotoxic effect of compounds 1–7 was evaluated on NIH/3T3 fibroblasts obtained from the Rio de Janeiro Cell Bank (Duque de Caxias, Brazil). Fibroblasts were seeded at […] in 96-well plates. After 24 h of fixation, cells were incubated for 48 h with 1–7 at 2.5–250 µg·mL^−1, in three replicates. Cell growth was evaluated using the sulforhodamine B colorimetric method, and the optical with absorbances read on the PT-READER microplate instrument (Spectramax 190, Molecular Devices, Sunnyvale, CA, USA) at 540 nm. […] The growth inhibition percentage-GI (%) of each test sample was calculated in Microsoft Office Excel 2007 software. IC50 was determined graphically in the Microcal Origin Version 6.00 program. The selectivity index (SI) was calculated as the ratio between the cytotoxicity on cells (IC50) and the activity on the parasite forms (IC50).

[4] = test system: L. (L.) amazonensis promastigote forms; assay: Flow cytometry for apoptosis and membrane permeability (PE Annexin V / 7-AAD); type: cell-based, Leishmania (Leishmania) amazonensis; settings: treatment at IC50
Description: PE Annexin V staining precedes the loss of membrane integrity observed in the final stages of cell death, resulting from either apoptotic or necrotic processes. PE Annexin V is used in conjunction with the vital dye 7-Amino-Actinomycin (7-AAD) to identify early apoptotic cells (7-AAD negative, PE Annexin V positive). Viable cells with intact membranes exclude 7-AAD, but the membranes of dead and damaged cells are permeable to 7-AAD. Cells that are in late apoptosis or already dead are both PE Annexin V and 7-AAD positive. […] Heat-killed parasites (60 °C bath/10 min) were used as positive control, and untreated parasites were used as negative control. Promastigotes were stained with 5 µL of PE Annexin V and 5 µL 7-AAD (PE Annexin V Apoptosis Detection Kit I, BD Biosciences^TM, Franklin Lakes, NJ, USA) and immediately subjected to flow cytometric analysis (BD FACSCanto^TM II). Then, 10,000 events were captured in the region previously determined to correspond to the parasites. Fluorescence was quantified and histograms were generated.

[5] = test system: L. (L.) amazonensis intracellular amastigotes; assay: In vitro antileishmanial activity on intracellular amastigotes in peritoneal macrophages; type: cell-based, Leishmania (Leishmania) amazonensis
Experimental: Peritoneal macrophages were obtained from BALB/c mice in RPMI 1640 culture medium (Sigma-Aldrich® São Paulo, Brazil). After exclusion of inviable cells with trypan blue staining (Sigma-Aldrich® São Paulo, Brazil), cells were transferred to 24-well plates with 13 mm round glass coverslips (10^6 cells/well) and kept at 37 °C/5% CO2. After adhesion for one hour, cells were infected with promastigote forms of L. (L.) amazonensis in the stationary phase (4 × 10^6 cells/well). After 4 h of incubation, samples (complexes 1–7) were added in six replicates (6.25–50.0 µg·mL^−1). […] Coverslips were removed after 24 h, subjected to a dehydration battery with increasing concentrations of acetone: xylol and stained with Giemsa (Sigma-Aldrich®, São Paulo, Brazil) diluted 1:10 in distilled water. After mounting on slides, 200 cells per coverslip were analyzed by light microscopy and the average number of amastigotes/cells was calculated. IC50 was determined using a non-linear dose–response regression curve as described above. The concentrations of complexes were compared by Two-way ANOVA followed by the Tukey test.

[6] = test system: L. (L.) amazonensis promastigote forms; assay: Flow cytometry for mitochondrial membrane potential (TMRE); type: cell-based, Leishmania (Leishmania) amazonensis
[7] = test system: promastigotes of L. (L.) infantum; set-up: method as in ref 18 Derici et al.; settings: ref 18 Derici et al.; cited from earlier work
[8] = test system: promastigotes of L. tropica; set-up: method as in ref 18 Derici et al.; settings: ref 18 Derici et al.; cited from earlier work
[9] = test system: Trypanosoma cruzi epimastigotes; set-up: method as in ref 45 Carvalho et al.; settings: 30–50 μg·mL^−1; ref 45 Carvalho et al.; cited from earlier work
[10] = test system: L. (L.) infantum promastigotes; set-up: method as in ref 16 Luz et al.; settings: ref 16 Luz et al.; cited from earlier work
[11] = test system: promastigotes of Leishmania major; set-up: method as in ref 18 Derici et al.; settings: ref 18 Derici et al.; cited from earlier work
[12] = test system: L. (L.) infantum promastigotes; set-up: method as in ref 16 Luz et al.; settings: 25 μg·mL^−1; ref 16 Luz et al.; cited from earlier work

SMILES: CC(=O)C1=C([O-])C=C2Oc3c(C(C)=O)c(O)c(C)c(O)c3C2(C)C1=O.CC(=O)C1=C([O-])C=C2Oc3c(C(C)=O)c(O)c(C)c(O)c3C2(C)C1=O.CC(=O)C1=C([O-])C=C2Oc3c(C(C)=O)c(O)c(C)c(O)c3C2(C)C1=O.O.O.O.[Eu+3] (centres unmarked) [EuL3·3H2O 4]
- IC50 [1]: 200 nM
- NO release from infected macrophages [2]: strongest effect
- NO release from infected macrophages ([2]; listed as EuL3·3H2O): triggered NO release
- IC50 [3]: 20.1 µM
- 7-AAD-stained parasites ([4]; 24 h): 0.5%
- An. (PE Annexin V-stained parasites) ([4]; 24 h): 0.6%
- An./7-AAD (double stained parasites) ([4]; 24 h): 0.7%
- Unst. (unstained parasites) ([4]; 24 h): 98.2%
- 7-AAD-stained parasites ([4]; 48 h): 1.0%
- An. (PE Annexin V-stained parasites) ([4]; 48 h): 1.3%
- An./7-AAD (double stained parasites) ([4]; 48 h): 2.3%
- Unst. (unstained parasites) ([4]; 48 h): 95.4%
- 7-AAD-stained parasites ([4]; 72 h): 6.0%
- An. (PE Annexin V-stained parasites) ([4]; 72 h): 1.9%
- An./7-AAD (double stained parasites) ([4]; 72 h): 8.1%
- Unst. (unstained parasites) ([4]; 72 h): 84.0%
- IC50 ([5]; BALB/c peritoneal macrophages, 24 h, Giemsa count, read-out: L. amazonensis Intracellular Amastigotes (Ama.) IC50): 2980 nM
- IC50 on intracellular amastigotes ([5]; converted from µM): 3.687 µg/mL
- TMRE-labeled promastigotes ([6]; 48 h after treatment at the calculated IC50): 79.9%
- TMRE-labeled promastigotes ([6]; 72 h after treatment at the calculated IC50): 80.6%

SMILES: CC(=O)c1c(O)c(C)c(O)c2c1OC1=CC(=O)C(C(C)=O)C(=O)C12C (centres unmarked) [usnic acid, 2,6-diacetyl-7,9-dihydroxy-8,9-dimethyl-1,3(2H,9bH)-dibenzofurandione]
- IC50/48 h on promastigotes [7]: 13.34 µg/mL (≈ 38.7 µM)
- IC50/48 h on promastigotes [8]: 21.06 µg/mL (≈ 61.2 µM)
- damage to the mitochondria [9]: marked swelling and branching
- IC50/72 h on promastigotes [10]: 18.30 µg/mL (≈ 53.1 µM)
- IC50/48 h on promastigotes [11]: 10.76 µg/mL (≈ 31.3 µM)
- changes in the mitochondrial morphology [12]: marked swelling
